Results reported in the supplement of paper PMC10883282.

Experiments:
Assay in all cases: relative viability vs DMSO control (72 h) (fraction); higher = more viable cells
[1] = system: SW872
Outline: (§1)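 Sarcoma cell lines went into 384-well plates at densities chosen to reach 80–90% confluence. After 24 h, each well received 2.5 µl of serially diluted compound, with source plates running from 10 mM to 0.0002 mM, and the plates were kept 72 h at 37 °C, 5% CO2, alongside 0.1% DMSO vehicle and a 5 µM positive control. Relative viability was derived from ATPLite readings as percent growth and averaged over up to triplicate wells. The data were then rescaled so that 1 stands for full and 0 for none.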

[2] = system: KHOS-240S
Outline: as §1

[3] = system: SK-LMS-1
Outline: as §1

[4] = system: SW1353
Outline: as §1

[5] = system: RD-ES
Outline: as §1

[6] = system: HT1080
Outline: as §1

[7] = system: RD
Outline: as §1

[8] = system: SYO-1
Outline: as §1

[9] = system: G401
Outline: as §1

[10] = system: HS729
Outline: as §1

[11] = system: SW684
Outline: as §1

[12] = system: KHOS-NP
Outline: as §1

Cc1c(F)cc(C(=O)NC2CC2)cc1-c1ccc(C(=O)NCC(C)(C)C)cn1 [Losmapimod]
Details	relative viability
[1], 0.00017 µM	1.04
[1], 0.00051 µM	1.08
[1], 0.00152 µM	1.07
[1], 0.00457 µM	1.05
[1], 0.01372 µM	1.06
[1], 0.04115 µM	1.04
[1], 0.1235 µM	1.06
[1], 0.3704 µM	1.04
[1], 1.111 µM	1.05
[1], 3.333 µM	1.04
[1], 10 µM	1.04
[2], 0.00017 µM	1.07
[2], 0.00051 µM	1.1
[2], 0.00152 µM	1.07
[2], 0.00457 µM	1.09
[2], 0.01372 µM	1.04
[2], 0.04115 µM	1.06
[2], 0.1235 µM	1.02
[2], 0.3704 µM	1
[2], 1.111 µM	0.951
[2], 3.333 µM	0.97
[2], 10 µM	0.893
[3], 0.00017 µM	1.02
[3], 0.00051 µM	1.02
[3], 0.00152 µM	1.01
[3], 0.00457 µM	1
[3], 0.01372 µM	0.995
[3], 0.04115 µM	1.02
[3], 0.1235 µM	1.005
[3], 0.3704 µM	0.978
[3], 1.111 µM	0.981
[3], 3.333 µM	0.967
[3], 10 µM	0.946
[4], 0.00017 µM	1.06
[4], 0.00051 µM	1.06
[4], 0.00152 µM	1.08
[4], 0.00457 µM	1.07
[4], 0.01372 µM	1.09
[4], 0.04115 µM	1.08
[4], 0.1235 µM	1.08
[4], 0.3704 µM	1.09
[4], 1.111 µM	1.079
[4], 3.333 µM	1.07
[4], 10 µM	0.959
[5], 0.00017 µM	1.01
[5], 0.00051 µM	0.995
[5], 0.00152 µM	1.02
[5], 0.00457 µM	0.993
[5], 0.01372 µM	0.998
[5], 0.04115 µM	0.962
[5], 0.1235 µM	0.947
[5], 0.3704 µM	0.917
[5], 1.111 µM	0.879
[5], 3.333 µM	0.892
[5], 10 µM	0.879
[6], 0.00017 µM	1.09
[6], 0.00051 µM	1.09
[6], 0.00152 µM	1.12
[6], 0.00457 µM	1.11
[6], 0.01372 µM	1.1
[6], 0.04115 µM	1.149
[6], 0.1235 µM	1.16
[6], 0.3704 µM	1.13
[6], 1.111 µM	1.11
[6], 3.333 µM	1.09
[6], 10 µM	1.11
[7], 0.00017 µM	1.11
[7], 0.00051 µM	1.11
[7], 0.00152 µM	1.1
[7], 0.00457 µM	1.14
[7], 0.01372 µM	1.12
[7], 0.04115 µM	1.13
[7], 0.1235 µM	1.11
[7], 0.3704 µM	1.07
[7], 1.111 µM	1.08
[7], 3.333 µM	1.02
[7], 10 µM	1.07
[8], 0.00017 µM	0.993
[8], 0.00051 µM	0.992
[8], 0.00152 µM	0.975
[8], 0.00457 µM	0.975
[8], 0.01372 µM	0.954
[8], 0.04115 µM	0.957
[8], 0.1235 µM	0.915
[8], 0.3704 µM	0.865
[8], 1.111 µM	0.852
[8], 3.333 µM	0.813
[8], 10 µM	0.812
[9], 0.00017 µM	1.06
[9], 0.00051 µM	1.03
[9], 0.00152 µM	1.05
[9], 0.00457 µM	1.074
[9], 0.01372 µM	1.03
[9], 0.04115 µM	1.01
[9], 0.1235 µM	0.981
[9], 0.3704 µM	0.964
[9], 1.111 µM	0.955
[9], 3.333 µM	0.904
[9], 10 µM	0.887
[10], 0.00017 µM	1.09
[10], 0.00051 µM	1.04
[10], 0.00152 µM	1.06
[10], 0.00457 µM	1.02
[10], 0.01372 µM	0.972
[10], 0.04115 µM	0.954
[10], 0.1235 µM	0.903
[10], 0.3704 µM	0.848
[10], 1.111 µM	0.818
[10], 3.333 µM	0.805
[10], 10 µM	0.809
[11], 0.00017 µM	1.11
[11], 0.00051 µM	1.2
[11], 0.00152 µM	1.24
[11], 0.00457 µM	1.21
[11], 0.01372 µM	1.18
[11], 0.04115 µM	1.15
[11], 0.1235 µM	1.13
[11], 0.3704 µM	1.25
[11], 1.111 µM	1.21
[11], 3.333 µM	1.18
[11], 10 µM	1.19
[12], 0.00017 µM	1.08
[12], 0.00051 µM	1.1
[12], 0.00152 µM	1.09
[12], 0.00457 µM	1.1
[12], 0.01372 µM	1.11
[12], 0.04115 µM	1.12
[12], 0.1235 µM	1.097
[12], 0.3704 µM	1.1
[12], 1.111 µM	1.097
[12], 3.333 µM	1.081
[12], 10 µM	1.1
